Assay results: PubChem BioAssay AID493105 (The Scripps Research Institute Molecular Screening Center, 2011)
Active and inactive are the calls of the source. No rule for the calls is given here.

Tests used:
Experiment in all cases: LYPLA1 and LYPLA2 inhibitors, biochemical, gel-based ABPP, fluorescence, recombinant and endogenous enzyme (AID 493105)
rhLYPLA1 = details: fluorescent probe labeling, soluble fraction, at 20 µM, stronger effect = higher value
emLYPLA2 = details: fluorescent probe labeling, membrane fraction, at 20 µM, stronger effect = higher value
rhLYPLA2 = details: fluorescent probe labeling, membrane fraction, at 20 µM, stronger effect = higher value
emLYPLA1 = details: fluorescent probe labeling, membrane fraction, at 20 µM, stronger effect = higher value

SMILES | inhibition (rhLYPLA1) | inhibition (emLYPLA2) | inhibition (rhLYPLA2) | inhibition (emLYPLA1)
COc1ccc(C(=O)NC(=S)Nc2ccc(N3CCOCC3)cc2)cc1Cl | 0% (inactive) | 8% (inactive) | 1% (inactive) | 0% (inactive)
O=C(CN1CCN(C(=O)c2ccco2)CC1)Nc1cc(C(F)(F)F)ccc1Cl | 78% | 13% (inactive) | 0% (inactive) | 60%
Cc1ccc(C)c(C(=O)CCC(=O)N2CCN(c3cccc(C(F)(F)F)c3)CC2)c1 | 31% | 4% (inactive) | 0% (inactive) | 4% (inactive)
COc1ccc(C(=O)NC(=S)Nc2ccc(N3CCN(C(C)=O)CC3)cc2)cc1[N+](=O)[O-] | 44% | 31% | 15% (inactive) | 10% (inactive)
CC1CC(C)CN(S(=O)(=O)c2ccc3c(c2)CC(C)N3C(=O)C2CCC2)C1 (stereo not drawn) | 9% (inactive) | 0% (inactive) | 0% (inactive) | 0% (inactive)
CC(=O)c1ccc(N2CCN(C(=O)c3ccc(C(=O)c4ccccc4)cc3)CC2)cc1 | 0% (inactive) | 0% (inactive) | 2% (inactive) | 13% (inactive)
O=C(CCN1CCN(c2ccc([N+](=O)[O-])cc2)CC1)c1ccc(Cl)cc1 | 0% (inactive) | 1% (inactive) | 6% (inactive) | 9% (inactive)
Clc1ccc(C(c2ccc(Cl)cc2)n2cc[n+](CC(OCc3ccc(Cl)cc3Cl)c3ccc(Cl)cc3Cl)c2)cc1 (stereo not drawn) | 0% (inactive) | 0% (inactive) | 0% (inactive) | 0% (inactive)
N#Cc1c(NC(=O)CN2CCN(C(=O)c3ccco3)CC2)sc2c1CCCCC2 | 20% (inactive) | 6% (inactive) | 0% (inactive) | 0% (inactive)
CC(=O)N1CCN(c2ccc(NC(=S)NC(=O)c3ccc(C)c([N+](=O)[O-])c3)cc2)CC1 | 17% (inactive) | 14% (inactive) | 5% (inactive) | 0% (inactive)
N#Cc1c(N)nc(SCc2ccncc2)c(C#N)c1-c1cccs1 | 3% (inactive) | 16% (inactive) | 11% (inactive) | 10% (inactive)
CCC(=C/c1sc2ccc3ccccc3c2[n+]1C)/C=C1\Sc2ccc3ccccc3c2N1C | 0% (inactive) | 7% (inactive) | 2% (inactive) | 1% (inactive)
Cc1nn(-c2ccccc2)c(N2CCCC2)c1/C=N/Nc1ccc(S(N)(=O)=O)cc1[N+](=O)[O-] | 7% (inactive) | 1% (inactive) | 0% (inactive) | 0% (inactive)
COc1ccc(C(CNC(=O)COc2ccc(-c3ccccc3)cc2)N2CCOCC2)cc1 (stereo not drawn) | 5% (inactive) | 1% (inactive) | 0% (inactive) | 0% (inactive)
COc1ccc(N2CCN(C(=O)CNC(=O)c3cn(-c4ccccc4OC)c(=O)c4ccccc34)CC2)cc1 | 0% (inactive) | 34% | 26% (inactive) | 15% (inactive)
COc1ccc(-n2nc(C(=O)NCC(=O)N3CCN(Cc4ccccc4)CC3)c3ccccc3c2=O)c(OC)c1 | 31% | 46% | 30% | 0% (inactive)
COc1ccc(-n2nc(C(=O)NCC(=O)N3CCN(Cc4ccccc4)CC3)c3ccccc3c2=O)cc1OC | 16% (inactive) | 15% (inactive) | 7% (inactive) | 23% (inactive)
O=C(NCCNC(=O)c1cc(OCC(F)(F)F)ccc1OCC(F)(F)F)Nc1cccc(C(F)(F)F)c1 | 57% | 7% (inactive) | 0% (inactive) | 12% (inactive)
O=C(CN1CCN(c2ccccn2)CC1)Nc1cc(C(F)(F)F)ccc1Cl | 36% | 9% (inactive) | 6% (inactive) | 0% (inactive)
COc1cc(/C=N/N2CCN(Cc3ccc(Cl)cc3)CC2)cc(Br)c1O | 31% | 0% (inactive) | 0% (inactive) | 0% (inactive)
NS(=O)(=O)c1ccc(CCNC(=O)c2cc([N+](=O)[O-])ccc2N2CCCCC2)cc1 | 49% | 0% (inactive) | 0% (inactive) | 0% (inactive)

SMILES | inhibition (rhLYPLA1) | inhibition (emLYPLA2) | inhibition (rhLYPLA2) | inhibition (emLYPLA1)
O=C1N=C(N2CCN(Cc3ccccc3)CC2)S/C1=C/c1cccs1 | 0% (inactive) | 0% (inactive) | 2% (inactive) | 4% (inactive)
COc1cccc(N=C2NC(=O)/C(=C/c3cc([N+](=O)[O-])ccc3O)S2)c1 | 0% (inactive) | 6% (inactive) | 0% (inactive) | 20% (inactive)
N#Cc1ccccc1OCCCN1CCC(Cc2ccccc2)CC1 | 21% (inactive) | 9% (inactive) | 0% (inactive) | 11% (inactive)
O=C(CCCc1ccccc1)N1CCN(c2ccc([N+](=O)[O-])cc2)CC1 | 0% (inactive) | 3% (inactive) | 0% (inactive) | 0% (inactive)
CC(=O)c1ccc(N2CCN(C(=O)c3cccc(Oc4ccccc4)c3)CC2)cc1 | 29% (inactive) | 0% (inactive) | 12% (inactive) | 0% (inactive)
COc1cc(COc2ccc3c(C)c(Cc4ccccc4)c(=O)oc3c2)cc(OC)c1OC | 0% (inactive) | 4% (inactive) | 0% (inactive) | 0% (inactive)
COc1ccc(-n2c(C)c([N+](=O)[O-])c3ccc(O)c(CN4CCCCC4)c32)cc1 | 21% (inactive) | 0% (inactive) | 0% (inactive) | 0% (inactive)
O=c1ccc2ccc(Oc3ccc([N+](=O)[O-])cc3Cl)cc2o1 | 0% (inactive) | 17% (inactive) | 6% (inactive) | 0% (inactive)
CCN(CC)S(=O)(=O)c1cccc(-c2nnc(SCCOc3ccccc3)o2)c1 | 8% (inactive) | 17% (inactive) | 19% (inactive) | 0% (inactive)
COc1ccccc1-n1cc(C(=O)NCC(=O)N2CCN(Cc3ccccc3)CC2)c2ccccc2c1=O | 0% (inactive) | 52% | 39% | 1% (inactive)
COc1ccc(-n2nc(C(=O)NCC(=O)N3CCN(c4cccc(Cl)c4)CC3)c3ccccc3c2=O)c(OC)c1 | 0% (inactive) | 83% | 61% | 16% (inactive)
O=[N+]([O-])c1cccc(/C=N/N2CCN(Cc3ccc(Cl)cc3)CC2)c1 | 0% (inactive) | 0% (inactive) | 0% (inactive) | 0% (inactive)
O=C(CN1CCN(C(=O)c2ccccc2)CC1)Nc1cc(S(=O)(=O)N2CCCC2)ccc1Cl | 55% | 14% (inactive) | 3% (inactive) | 21% (inactive)
O=C(COc1ccc(Cl)cc1)N1CCN(c2cccc(C(F)(F)F)c2)CC1 | 0% (inactive) | 9% (inactive) | 0% (inactive) | 0% (inactive)
O=C(c1ccc2n[nH]nc2c1)N1CCN(c2ccc(C(F)(F)F)cn2)CC1 | 70% | 57% | 32% | 90%
Clc1cccc(N2CCN(CCNc3nc4ccccc4n4cnnc34)CC2)c1 | 0% (inactive) | 0% (inactive) | 0% (inactive) | 1% (inactive)
CCOc1cc(CN2CCCC(C(=O)c3cccc(C(F)(F)F)c3)C2)ccc1O (stereo not drawn) | 2% (inactive) | 0% (inactive) | 0% (inactive) | 0% (inactive)
O=C(CCCCn1c(=O)[nH]c2ccccc2c1=O)N1CCN(c2cccc(C(F)(F)F)c2)CC1 | 0% (inactive) | 0% (inactive) | 0% (inactive) | 0% (inactive)
COc1ccc(OCC(O)CN2CCC(CN3C(=O)c4cccc5cccc(c45)C3=O)CC2)cc1 (stereo not drawn) | 0% (inactive) | 16% (inactive) | 9% (inactive) | 0% (inactive)
N#Cc1c(NC(=O)CSc2nc(N)cc(=O)[nH]2)sc2c1CCCC2 | 26% (inactive) | 0% (inactive) | 3% (inactive) | 0% (inactive)
O=C(CN1CCN(C(=O)c2ccco2)CC1)Nc1cc(Cl)ccc1Cl | 60% | 0% (inactive) | 0% (inactive) | 37%
